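48-hour exposure; five concentrations; linearly interpolated endpoints. At the TGI there is no net growth.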
What was measured:
Assay in all cases: DTP human tumour cell line panel, 48 h
[1] = tested on: SF-268 CNS
[2] = tested on: NCI-H460 lung
[3] = tested on: NCI/ADR-RES ovarian
[4] = tested on: TK-10 renal
[5] = tested on: CAKI-1 renal
[6] = tested on: HCC-2998 colon
[7] = tested on: HOP-92 NSCLC
[8] = tested on: OVCAR-5 ovarian
[9] = tested on: NCI-H23 lung
[10] = tested on: A498 renal
[11] = tested on: SK-MEL-28 melanoma
[12] = tested on: 786-0 renal
[13] = tested on: SR leukemia
[14] = tested on: UO-31 renal
[15] = tested on: OVCAR-4 ovarian
[16] = tested on: SNB-75 CNS
[17] = tested on: NCI-H522 lung
[18] = tested on: SNB-19 CNS
[19] = tested on: SK-MEL-2 melanoma
[20] = tested on: MDA-MB-231 breast
[21] = tested on: MOLT-4 leukemia
[22] = tested on: HL-60(TB) leukemia
[23] = tested on: RPMI-8226 leukemia
[24] = tested on: MALME-3M melanoma
[25] = tested on: SN12C renal
[26] = tested on: HCT-116 colon
[27] = tested on: SW-620 colon
[28] = tested on: UACC-257 melanoma
[29] = tested on: MCF7 breast
[30] = tested on: K-562 leukemia
[31] = tested on: HOP-62 NSCLC
[32] = tested on: MDA-N
[33] = tested on: DU-145 prostate
[34] = tested on: MDA-MB-435
[35] = tested on: LOX IMVI melanoma
[36] = tested on: PC-3 prostate
[37] = tested on: UACC-62 melanoma
[38] = tested on: T-47D breast
[39] = tested on: U251 CNS
[40] = tested on: OVCAR-3 ovarian
[41] = tested on: OVCAR-8 ovarian
[42] = tested on: IGROV1 ovarian
[43] = tested on: SK-OV-3 ovarian
[44] = tested on: ACHN renal
[45] = tested on: HT29 colon
[46] = tested on: SF-539 CNS
[47] = tested on: CCRF-CEM leukemia
[48] = tested on: HCT-15 colon
[49] = tested on: M14 melanoma
[50] = tested on: COLO 205 colon
[51] = tested on: EKVX NSCLC
[52] = tested on: SK-MEL-5 melanoma
[53] = tested on: NCI-H226 lung
[54] = tested on: A549 NSCLC
[55] = tested on: KM12 colon
[56] = tested on: HS 578T breast
[57] = tested on: SF-295 CNS
[58] = tested on: RXF 393 renal

CCCCCCCN(CCCCCCC)CC(O)c1cc2ccccc2c2cc(Br)ccc12 (stereo unspecified)
TGI [1]: 54.8 µM | TGI [2]: > 100 µM | TGI [3]: > 100 µM | TGI [4]: > 100 µM | TGI [5]: > 100 µM | TGI [6]: 45.7 µM | TGI [7]: 77 µM | TGI [8]: > 100 µM | TGI [9]: > 100 µM | TGI [10]: > 100 µM | TGI [11]: > 100 µM | TGI [12]: > 100 µM | TGI [13]: > 100 µM | TGI [14]: > 100 µM | TGI [15]: > 100 µM | TGI [16]: 93.9 µM | TGI [17]: > 100 µM | TGI [18]: > 100 µM | TGI [19]: 69.9 µM | TGI [20]: > 100 µM | TGI [21]: > 100 µM | TGI [22]: > 100 µM | TGI [23]: > 100 µM | TGI [24]: 40.7 µM | TGI [25]: 46.7 µM | TGI [26]: > 100 µM | TGI [27]: > 100 µM | TGI [28]: > 100 µM | TGI [29]: 48 µM | TGI [30]: > 100 µM | TGI [31]: > 100 µM | TGI [32]: > 100 µM | TGI [33]: 38.8 µM | TGI [34]: > 100 µM | TGI [35]: > 100 µM | TGI [36]: > 100 µM | TGI [37]: > 100 µM | TGI [38]: > 100 µM | TGI [39]: 45.6 µM | TGI [40]: 36.4 µM | TGI [41]: > 100 µM | TGI [42]: > 100 µM | TGI [43]: > 100 µM | TGI [44]: > 100 µM | TGI [45]: > 100 µM | TGI [46]: > 100 µM | TGI [47]: > 100 µM | TGI [48]: > 100 µM | TGI [49]: 76.7 µM | TGI [50]: > 100 µM | TGI [51]: > 100 µM

C#CC(O)/C=C/C(O)CCCC(O)CC#CC(O)C#CC(O)CCCC(O)/C=C/CCCCCC(=O)CCCCCCCCCCCCCC(O)C(O)C#CC(=O)O (stereo unspecified)
TGI [1]: > 50 µM | TGI [2]: > 50 µM | TGI [3]: > 50 µM | TGI [4]: > 50 µM | TGI [5]: > 50 µM | TGI [6]: > 50 µM | TGI [7]: 27.1 µM | TGI [8]: > 50 µM | TGI [9]: > 50 µM | TGI [10]: > 50 µM | TGI [11]: 25 µM | TGI [12]: > 50 µM | TGI [13]: 26.1 µM | TGI [14]: > 50 µM | TGI [15]: 17.9 µM | TGI [16]: 26 µM | TGI [17]: 18.3 µM | TGI [18]: > 50 µM | TGI [19]: 47.3 µM | TGI [20]: 24.6 µM | TGI [21]: 26.6 µM | TGI [52]: > 50 µM | TGI [22]: > 50 µM | TGI [23]: > 50 µM | TGI [24]: > 50 µM | TGI [25]: > 50 µM | TGI [26]: > 50 µM | TGI [28]: > 50 µM | TGI [29]: 38.7 µM | TGI [30]: > 50 µM | TGI [31]: > 50 µM | TGI [32]: > 50 µM | TGI [33]: > 50 µM | TGI [53]: > 50 µM | TGI [34]: > 50 µM | TGI [35]: 24.5 µM | TGI [36]: > 50 µM | TGI [37]: > 50 µM | TGI [38]: 35 µM | TGI [39]: > 50 µM | TGI [54]: > 50 µM | TGI [55]: > 50 µM | TGI [56]: 33.3 µM | TGI [41]: > 50 µM | TGI [57]: > 50 µM | TGI [42]: 36.6 µM | TGI [43]: > 50 µM | TGI [44]: > 50 µM | TGI [45]: > 50 µM | TGI [47]: 34.2 µM | TGI [48]: > 50 µM | TGI [49]: > 50 µM | TGI [50]: > 50 µM | TGI [51]: > 50 µM

Cc1c(N=Nc2ccc(Cl)cc2)c(C)n(C2OC(CO)C(O)C(O)C2O)c(=S)c1C#N (stereo unspecified)
TGI [1]: 52.1 µM | TGI [2]: 87.4 µM | TGI [58]: 71.6 µM | TGI [3]: 47.1 µM | TGI [4]: 79.5 µM | TGI [5]: > 100 µM | TGI [6]: 58.7 µM | TGI [7]: 71.4 µM | TGI [8]: > 100 µM | TGI [9]: 74.3 µM | TGI [11]: 52.3 µM | TGI [12]: 37.4 µM | TGI [14]: 57.9 µM | TGI [15]: 50.1 µM | TGI [16]: 68 µM | TGI [17]: 49.9 µM | TGI [18]: > 100 µM | TGI [19]: 33.8 µM | TGI [20]: 36.1 µM | TGI [21]: 42.3 µM | TGI [52]: 21.8 µM | TGI [22]: 58.3 µM | TGI [23]: 50.3 µM | TGI [24]: 46.3 µM | TGI [25]: 41.8 µM | TGI [26]: 29.1 µM | TGI [27]: > 100 µM | TGI [28]: 54.1 µM | TGI [29]: > 100 µM | TGI [30]: 55.4 µM | TGI [31]: 36.8 µM | TGI [32]: 50.4 µM | TGI [33]: > 100 µM | TGI [53]: 65.9 µM | TGI [34]: 42.7 µM | TGI [35]: 33.3 µM | TGI [36]: 68.7 µM | TGI [37]: 30.5 µM | TGI [38]: > 100 µM | TGI [39]: 36.4 µM | TGI [54]: > 100 µM | TGI [55]: 54.5 µM | TGI [40]: 34.2 µM | TGI [56]: 83 µM | TGI [41]: 63.9 µM | TGI [57]: 83.5 µM | TGI [42]: 37.4 µM | TGI [43]: > 100 µM | TGI [44]: 55.5 µM | TGI [45]: > 100 µM | TGI [46]: 38 µM | TGI [47]: 53.5 µM | TGI [48]: 60.8 µM | TGI [49]: 36.5 µM | TGI [50]: 40.6 µM | TGI [51]: 93.2 µM
